Assays:
Type in all cases: in vivo
[1] = tested on: foxtail, giant (giant foxtail, Setaria faberii); assay: Test A preemergence, giant foxtail; conditions: Preemergence, 0 to 100 scale (0 no effect, 100 complete control)
Procedure, shortened: (§1)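 Ratings run 0–100, where 100 is complete control, and were scored visually against untreated plants about 10 days after treatment under greenhouse conditions. Formulated chemicals were sprayed either onto the soil surface after seeding (preemergence) or onto one- to two-leaf seedlings 2–10 cm high (postemergence).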

[2] = tested on: pigweed (Amaranthus retroflexus); assay: Test A postemergence, pigweed; conditions: postemergence, 0 to 100 scale, 0 is no effect, 100 is complete control, approximately 10 days
Procedure, shortened: as §1

[3] = tested on: blackgrass (Alopecurus myosuroides); assay: Test A postemergence, blackgrass; conditions: postemergence, 0 to 100 scale, 0 is no effect, 100 is complete control, approximately 10 days
Procedure, shortened: as §1

[4] = tested on: wheat (Triticum aestivum); assay: Test A postemergence, wheat; conditions: postemergence, 0 to 100 scale, 0 is no effect, 100 is complete control, approximately 10 days
Procedure, shortened: as §1

[5] = tested on: galium (catchweed bedstraw, Galium aparine); assay: Test A postemergence, galium; conditions: postemergence, 0 to 100 scale, 0 is no effect, 100 is complete control, approximately 10 days
Procedure, shortened: as §1

kochia (Kochia scoparia) [6] = assay: Test A preemergence, kochia; conditions: Preemergence, 0 to 100 scale (0 no effect, 100 complete control)
Procedure, shortened: as §1

[7] = tested on: foxtail, giant (giant foxtail, Setaria faberii); assay: Test A postemergence, giant foxtail; conditions: postemergence, 0 to 100 scale, 0 is no effect, 100 is complete control, approximately 10 days
Procedure, shortened: as §1

kochia (Kochia scoparia) [8] = assay: Test A postemergence, kochia; conditions: postemergence, 0 to 100 scale, 0 is no effect, 100 is complete control, approximately 10 days
Procedure, shortened: as §1

[9] = tested on: ducksalad (Heteranthera limosa); assay: Test B flooded paddy test, ducksalad; conditions: 250 g ai/ha, Flood; visual rating after 13 to 15 days; scale 0 to 100, 0 is no effect, 100 is complete control
Procedure, shortened: (§2)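 Seedlings at the 2-leaf stage are flooded to 3 cm and treated via the paddy water. Greenhouse plants are compared with controls after 13 to 15 days and given a 0 (no effect) to 100 (complete control) rating.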

rice (Oryza sativa) = assay: Test B flooded paddy test, rice; conditions: 250 g ai/ha, Flood; visual rating after 13 to 15 days; scale 0 to 100, 0 is no effect, 100 is complete control
Procedure, shortened: as §2

[10] = tested on: sedge, umbrella (small-flower umbrella sedge, Cyperus difformis); assay: Test B flooded paddy test, umbrella sedge; conditions: 250 g ai/ha, Flood; visual rating after 13 to 15 days; scale 0 to 100, 0 is no effect, 100 is complete control
Procedure, shortened: as §2

corn (Zea mays) = assay: Test A postemergence, corn; conditions: postemergence, 0 to 100 scale, 0 is no effect, 100 is complete control, approximately 10 days
Procedure, shortened: as §1

[11] = tested on: barnyardgrass (Echinochloa crus-galli); assay: Test A preemergence, barnyardgrass; conditions: Preemergence, 0 to 100 scale (0 no effect, 100 complete control)
Procedure, shortened: as §1

[12] = tested on: barnyardgrass (Echinochloa crus-galli); assay: Test B flooded paddy test, barnyardgrass; conditions: 250 g ai/ha, Flood; visual rating after 13 to 15 days; scale 0 to 100, 0 is no effect, 100 is complete control
Procedure, shortened: as §2

[13] = tested on: pigweed (Amaranthus retroflexus); assay: Test A preemergence, pigweed; conditions: Preemergence, 0 to 100 scale (0 no effect, 100 complete control)
Procedure, shortened: as §1

[14] = tested on: ryegrass, Italian (Italian ryegrass, Lolium multiflorum); assay: Test A postemergence, Italian ryegrass; conditions: postemergence, 0 to 100 scale, 0 is no effect, 100 is complete control, approximately 10 days
Procedure, shortened: as §1

[15] = tested on: ragweed (common ragweed, Ambrosia elatior); assay: Test A preemergence, ragweed; conditions: Preemergence, 0 to 100 scale (0 no effect, 100 complete control)
Procedure, shortened: as §1

[16] = tested on: barnyardgrass (Echinochloa crus-galli); assay: Test A postemergence, barnyardgrass; conditions: postemergence, 0 to 100 scale, 0 is no effect, 100 is complete control, approximately 10 days
Procedure, shortened: as §1

[17] = tested on: ryegrass, Italian (Italian ryegrass, Lolium multiflorum); assay: Test A preemergence, Italian ryegrass; conditions: Preemergence, 0 to 100 scale (0 no effect, 100 complete control)
Procedure, shortened: as §1

[18] = tested on: ragweed (common ragweed, Ambrosia elatior); assay: Test A postemergence, ragweed; conditions: postemergence, 0 to 100 scale, 0 is no effect, 100 is complete control, approximately 10 days
Procedure, shortened: as §1

| Structure (SMILES) | Plant response rating, Foxtail, Giant ([1]; 125 g ai/ha) | Plant response rating, Pigweed ([2]; 125 g ai/ha) | Plant response rating, Blackgrass ([3]; 125 g ai/ha) | Plant response rating, Wheat ([4]; 125 g ai/ha) | Plant response rating, Galium ([5]; 125 g ai/ha) | Plant response rating, Kochia (kochia (Kochia scoparia) [6]; 125 g ai/ha) | Plant response rating, Foxtail, Giant ([7]; 125 g ai/ha) | Plant response rating, Kochia (kochia (Kochia scoparia) [8]; 125 g ai/ha) | Plant response rating, Ducksalad [9] | Plant response rating, Rice (rice (Oryza sativa)) | Plant response rating, Sedge, Umbrella [10] | Plant response rating, Corn (corn (Zea mays); 125 g ai/ha) | Plant response rating, Barnyardgrass ([11]; 125 g ai/ha) | Plant response rating, Barnyardgrass [12] | Plant response rating, Pigweed ([13]; 125 g ai/ha) | Plant response rating, Ryegrass, Italian ([14]; 125 g ai/ha) | Plant response rating, Ragweed ([15]; 125 g ai/ha) | Plant response rating, Barnyardgrass ([16]; 125 g ai/ha) | Plant response rating, Ryegrass, Italian ([17]; 125 g ai/ha) | Plant response rating, Ragweed ([18]; 125 g ai/ha) | further results |
| --- | --- | --- | --- | --- | --- | --- | --- | --- | --- | --- | --- | --- | --- | --- | --- | --- | --- | --- | --- | --- | --- |
| FC(F)C(F)(F)C(F)(F)C(F)(F)COc1c(Br)cccc1Oc1ncc(Cl)cn1 [Compound 53] | 100 | 100 | 30 | 10 | 90 | 20 | 30 | 100 | 90 | 15 | 80 | 10 | 60 | 0 | 80 | 20 | 0 | 40 | 20 | 40 | Plant response rating, Foxtail, Giant ([1]; 500 g ai/ha): 100; Plant response rating, Pigweed ([2]; 500 g ai/ha): 100; Plant response rating, Blackgrass ([3]; 500 g ai/ha): 60; Plant response rating, Wheat ([4]; 500 g ai/ha): 30; Plant response rating, Galium ([5]; 500 g ai/ha): 100; Plant response rating, Kochia (kochia (Kochia scoparia) [6]; 500 g ai/ha): 90; Plant response rating, Foxtail, Giant ([7]; 500 g ai/ha): 100; Plant response rating, Kochia (kochia (Kochia scoparia) [8]; 500 g ai/ha): 100; Plant response rating, Corn (corn (Zea mays); 500 g ai/ha): 30; Plant response rating, Barnyardgrass ([11]; 500 g ai/ha): 100; Plant response rating, Pigweed ([13]; 500 g ai/ha): 100; Plant response rating, Ryegrass, Italian ([14]; 500 g ai/ha): 70; Plant response rating, Ragweed ([15]; 500 g ai/ha): 20; Plant response rating, Barnyardgrass ([16]; 500 g ai/ha): 100; Plant response rating, Ryegrass, Italian ([17]; 500 g ai/ha): 80; Plant response rating, Ragweed ([18]; 500 g ai/ha): 80 |
| FC(F)(F)CCCOc1c(Oc2ncc(Cl)cn2)cccc1C(F)(F)F [Compound 54] | 100 | 80 | 10 | 10 | 50 | 30 | 70 | 50 | 100 | 40 | 100 | 20 | 90 | 40 | 100 | 20 | 0 | 20 | 80 | 10 | Plant response rating, Foxtail, Giant ([1]; 31 g ai/ha): 50; Plant response rating, Pigweed ([2]; 31 g ai/ha): 20; Plant response rating, Blackgrass ([3]; 31 g ai/ha): 0; Plant response rating, Wheat ([4]; 31 g ai/ha): 0; Plant response rating, Galium ([5]; 31 g ai/ha): 20; Plant response rating, Kochia (kochia (Kochia scoparia) [6]; 31 g ai/ha): 0; Plant response rating, Foxtail, Giant ([7]; 31 g ai/ha): 10; Plant response rating, Kochia (kochia (Kochia scoparia) [8]; 31 g ai/ha): 10; Plant response rating, Corn (corn (Zea mays); 31 g ai/ha): 10; Plant response rating, Barnyardgrass ([11]; 31 g ai/ha): 20; Plant response rating, Pigweed ([13]; 31 g ai/ha): 20; Plant response rating, Ryegrass, Italian ([14]; 31 g ai/ha): 0; Plant response rating, Ragweed ([15]; 31 g ai/ha): 0; Plant response rating, Barnyardgrass ([16]; 31 g ai/ha): 10; Plant response rating, Ryegrass, Italian ([17]; 31 g ai/ha): 10; Plant response rating, Ragweed ([18]; 31 g ai/ha): 0 |
| Cc1cccc(Oc2ncc(Cl)cn2)c1OCCCC(F)(F)F [Compound 55] | 80 | 30 | 20 | 0 | 20 | 60 | 60 | 20 | 100 | 45 | 95 | 20 | 70 | 40 | 50 | 20 | 0 | 20 | 10 | 0 | Plant response rating, Foxtail, Giant ([1]; 31 g ai/ha): 10; Plant response rating, Pigweed ([2]; 31 g ai/ha): 10; Plant response rating, Blackgrass ([3]; 31 g ai/ha): 0; Plant response rating, Wheat ([4]; 31 g ai/ha): 0; Plant response rating, Galium ([5]; 31 g ai/ha): 0; Plant response rating, Kochia (kochia (Kochia scoparia) [6]; 31 g ai/ha): 0; Plant response rating, Foxtail, Giant ([7]; 31 g ai/ha): 20; Plant response rating, Kochia (kochia (Kochia scoparia) [8]; 31 g ai/ha): 10; Plant response rating, Corn (corn (Zea mays); 31 g ai/ha): 0; Plant response rating, Barnyardgrass ([11]; 31 g ai/ha): 10; Plant response rating, Pigweed ([13]; 31 g ai/ha): 0; Plant response rating, Ryegrass, Italian ([14]; 31 g ai/ha): 0; Plant response rating, Ragweed ([15]; 31 g ai/ha): 0; Plant response rating, Barnyardgrass ([16]; 31 g ai/ha): 10; Plant response rating, Ryegrass, Italian ([17]; 31 g ai/ha): 0; Plant response rating, Ragweed ([18]; 31 g ai/ha): 0 |
| O=C(CCC(F)(F)F)COc1c(Br)cccc1Oc1ncc(Cl)cn1 [Compound 56] | 90 | 100 | 20 | 20 | 40 | 50 | 30 | 60 | 85 | 30 | 75 | 30 | 90 | 0 | 80 | 10 | 0 | 20 | 0 | 0 | Plant response rating, Foxtail, Giant ([1]; 31 g ai/ha): 0; Plant response rating, Pigweed ([2]; 31 g ai/ha): 40; Plant response rating, Blackgrass ([3]; 31 g ai/ha): 0; Plant response rating, Wheat ([4]; 31 g ai/ha): 0; Plant response rating, Galium ([5]; 31 g ai/ha): 10; Plant response rating, Kochia (kochia (Kochia scoparia) [6]; 31 g ai/ha): 0; Plant response rating, Foxtail, Giant ([7]; 31 g ai/ha): 0; Plant response rating, Kochia (kochia (Kochia scoparia) [8]; 31 g ai/ha): 0; Plant response rating, Corn (corn (Zea mays); 31 g ai/ha): 10; Plant response rating, Barnyardgrass ([11]; 31 g ai/ha): 0; Plant response rating, Pigweed ([13]; 31 g ai/ha): 0; Plant response rating, Ryegrass, Italian ([14]; 31 g ai/ha): 0; Plant response rating, Ragweed ([15]; 31 g ai/ha): 0; Plant response rating, Barnyardgrass ([16]; 31 g ai/ha): 0; Plant response rating, Ryegrass, Italian ([17]; 31 g ai/ha): 0; Plant response rating, Ragweed ([18]; 31 g ai/ha): 0 |
